Assay results: ChEMBL document CHEMBL4346721, “Small molecule PROTACs in targeted therapy: An emerging strategy to induce protein degradation” (Eur J Med Chem, 2019)
Blank lines part the entries; values can stand above or below the compound they belong to.

How the values were obtained:
[1] = biological target: Protein cereblon/Peptidyl-prolyl cis-trans isomerase FKBP1A (Homo sapiens, UniProt P62942+Q96SW2); assay: Protac activity against CRBN/FKBP12 (unknown origin) assessed as FKBP12 degradation by cell based assay
Sequence of Protein cereblon/Peptidyl-prolyl cis-trans isomerase FKBP1A (P62942 whole entry): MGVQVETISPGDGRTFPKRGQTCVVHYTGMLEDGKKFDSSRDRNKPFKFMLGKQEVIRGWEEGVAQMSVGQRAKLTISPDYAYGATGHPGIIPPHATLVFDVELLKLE
Sequence of Protein cereblon/Peptidyl-prolyl cis-trans isomerase FKBP1A (Q96SW2 whole entry): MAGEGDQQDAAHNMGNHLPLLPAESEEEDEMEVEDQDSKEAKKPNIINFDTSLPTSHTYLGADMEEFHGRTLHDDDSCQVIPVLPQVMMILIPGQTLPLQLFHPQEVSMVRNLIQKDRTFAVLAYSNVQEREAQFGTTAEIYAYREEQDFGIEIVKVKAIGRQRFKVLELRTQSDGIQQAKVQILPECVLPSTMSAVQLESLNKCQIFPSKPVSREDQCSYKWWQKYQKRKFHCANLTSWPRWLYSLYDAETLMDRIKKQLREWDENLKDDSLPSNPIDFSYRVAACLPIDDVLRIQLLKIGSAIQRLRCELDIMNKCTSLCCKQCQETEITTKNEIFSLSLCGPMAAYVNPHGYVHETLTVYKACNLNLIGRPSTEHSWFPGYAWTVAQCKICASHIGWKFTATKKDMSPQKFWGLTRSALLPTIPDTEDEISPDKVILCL

[2] = biological target: T1, von Hippel-Lindau disease tumor suppressor/Androgen receptor (Homo sapiens, UniProt P10275+P40337); assay: Protac activity against VHL/androgen receptor in human VCaP cells assessed as induction of androgen receptor protein degradation by Western blot analysis relative to control; assay type: cell-based
[3] = biological target: T1, von Hippel-Lindau disease tumor suppressor/Androgen receptor; assay: Protac activity against VHL/androgen receptor in human VCaP cells assessed as induction of androgen receptor protein degradation by Western blot analysis; assay type: cell-based
Target sequence in this assay (P10275 whole entry): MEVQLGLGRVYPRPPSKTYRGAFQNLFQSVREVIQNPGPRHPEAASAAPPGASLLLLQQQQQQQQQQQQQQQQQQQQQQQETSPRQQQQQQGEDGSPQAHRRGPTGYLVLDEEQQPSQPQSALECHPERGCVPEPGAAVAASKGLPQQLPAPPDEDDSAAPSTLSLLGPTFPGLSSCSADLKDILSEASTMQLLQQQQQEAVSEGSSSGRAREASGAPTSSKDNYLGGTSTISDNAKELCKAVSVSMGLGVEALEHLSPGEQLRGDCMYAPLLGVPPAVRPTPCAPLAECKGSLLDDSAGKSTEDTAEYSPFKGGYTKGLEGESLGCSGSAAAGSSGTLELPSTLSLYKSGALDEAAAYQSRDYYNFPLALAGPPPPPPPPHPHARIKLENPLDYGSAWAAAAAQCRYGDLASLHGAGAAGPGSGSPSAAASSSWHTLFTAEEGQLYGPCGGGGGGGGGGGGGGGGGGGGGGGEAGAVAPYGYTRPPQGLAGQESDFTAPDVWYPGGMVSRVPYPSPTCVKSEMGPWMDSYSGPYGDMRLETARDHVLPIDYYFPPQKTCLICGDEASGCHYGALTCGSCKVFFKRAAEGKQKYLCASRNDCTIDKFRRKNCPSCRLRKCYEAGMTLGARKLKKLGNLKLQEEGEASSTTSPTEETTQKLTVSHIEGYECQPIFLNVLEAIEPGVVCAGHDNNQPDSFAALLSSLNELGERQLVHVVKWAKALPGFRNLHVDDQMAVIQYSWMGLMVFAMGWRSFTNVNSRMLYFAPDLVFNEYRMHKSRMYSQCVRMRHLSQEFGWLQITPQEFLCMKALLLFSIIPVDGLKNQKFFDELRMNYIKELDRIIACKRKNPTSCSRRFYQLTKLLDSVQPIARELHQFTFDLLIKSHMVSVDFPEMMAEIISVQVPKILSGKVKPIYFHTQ
Target sequence in this assay (P40337 whole entry): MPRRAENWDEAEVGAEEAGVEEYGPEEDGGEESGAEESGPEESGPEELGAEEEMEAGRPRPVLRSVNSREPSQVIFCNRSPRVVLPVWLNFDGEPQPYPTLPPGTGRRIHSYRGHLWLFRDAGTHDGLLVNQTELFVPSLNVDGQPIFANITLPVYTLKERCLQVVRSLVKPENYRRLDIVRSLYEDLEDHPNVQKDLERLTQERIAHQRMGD

[4] = biological target: von Hippel-Lindau disease tumor suppressor (Homo sapiens, UniProt P40337); assay: Binding affinity to VHL in human THP-1 cells; assay type: cell-based
Sequence of von Hippel-Lindau disease tumor suppressor (P40337 whole entry): as above

[5] = biological target: T2, von Hippel-Lindau disease tumor suppressor/Receptor-interacting serine/threonine-protein kinase 2 (Homo sapiens, UniProt O43353+P40337); assay: Protac activity against VHL/RIPK2 in human THP-1 cells assessed as induction of RIPK2 protein degradation; assay type: cell-based
[6] = biological target: T2, von Hippel-Lindau disease tumor suppressor/Receptor-interacting serine/threonine-protein kinase 2; assay: Protac activity against VHL/RIPK2 in human THP-1 cells assessed as induction of RIPK2 protein degradation at 10 nM relative to control; assay type: cell-based
[7] = biological target: Protein cereblon/Cyclin-dependent kinase 9 (Homo sapiens, UniProt P50750+Q96SW2); assay: Protac activity against E3 ubiquitin ligase/CDK9 in human MCF7 cells assessed as induction of CDK9 protein degradation; assay type: cell-based
[8] = biological target: T3, von Hippel-Lindau disease tumor suppressor/Bromodomain-containing protein 2 (Homo sapiens, UniProt P25440+P40337); assay: Protac activity against VHL/BRD2 (unknown origin) assessed as […] protein degradation by cell based assay
T3 sequence (P25440 whole entry): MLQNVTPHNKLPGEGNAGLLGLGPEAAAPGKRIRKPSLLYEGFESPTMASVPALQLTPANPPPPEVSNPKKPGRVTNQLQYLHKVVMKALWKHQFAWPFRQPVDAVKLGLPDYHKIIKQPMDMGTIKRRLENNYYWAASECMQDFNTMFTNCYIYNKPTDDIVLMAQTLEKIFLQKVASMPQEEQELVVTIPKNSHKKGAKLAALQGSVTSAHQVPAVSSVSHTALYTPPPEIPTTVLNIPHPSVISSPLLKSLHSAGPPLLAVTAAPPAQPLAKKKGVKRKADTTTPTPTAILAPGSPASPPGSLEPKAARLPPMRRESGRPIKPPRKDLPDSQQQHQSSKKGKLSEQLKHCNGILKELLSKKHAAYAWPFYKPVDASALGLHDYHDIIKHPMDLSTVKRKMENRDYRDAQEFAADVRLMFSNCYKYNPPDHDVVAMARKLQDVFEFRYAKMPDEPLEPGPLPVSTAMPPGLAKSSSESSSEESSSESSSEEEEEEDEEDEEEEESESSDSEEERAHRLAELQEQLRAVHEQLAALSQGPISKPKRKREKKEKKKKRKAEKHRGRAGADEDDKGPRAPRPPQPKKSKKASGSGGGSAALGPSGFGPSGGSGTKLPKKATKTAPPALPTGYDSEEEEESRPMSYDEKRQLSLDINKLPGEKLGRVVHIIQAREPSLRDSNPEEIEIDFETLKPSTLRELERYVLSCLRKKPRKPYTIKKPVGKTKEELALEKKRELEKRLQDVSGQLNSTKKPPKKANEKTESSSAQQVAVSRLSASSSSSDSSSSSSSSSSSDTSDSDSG
T3 sequence (P40337 whole entry): as the sequence (P40337 whole entry) above

[9] = biological target: von Hippel-Lindau disease tumor suppressor/Bromodomain-containing protein 4 (Homo sapiens, UniProt O60885+P40337); assay: Protac activity against VHL/BRD4 (unknown origin) assessed as induction of BRD4 protein degradation by cell based assay
Sequence of von Hippel-Lindau disease tumor suppressor/Bromodomain-containing protein 4 (P40337 whole entry, looked up, other chains not shown): as the sequence (P40337 whole entry) above

[10] = biological target: von Hippel-Lindau disease tumor suppressor/Bromodomain-containing protein 3 (Homo sapiens, UniProt Q15059+P40337); assay: Protac activity against VHL/BRD3 (unknown origin) assessed as […] protein degradation by cell based assay
[11] = biological target: Estrogen receptor/E3 ubiquitin-protein ligase XIAP (Homo sapiens) (UniProt P03372+P98170); assay: Protac activity against xiap/ERalpha in human MCF7 cells assessed as reduction in ERalpha protein level at 3 nM relative to control; assay type: cell-based; design: scale not given: the % may be the effect or the level left
[12] = biological target: Protein cereblon/Histone acetyltransferase KAT2A (Homo sapiens, UniProt Q92830+Q96SW2); assay: Protac activity against E3 ubiquitin ligase/GCN5 in human THP-1 cells assessed as induction of GCN5 protein degradation; assay type: cell-based
[13] = biological target: Protein cereblon/Histone acetyltransferase KAT2B (Homo sapiens, UniProt Q92831+Q96SW2); assay: Protac activity against E3 ubiquitin ligase/PCAF in human THP-1 cells assessed as induction of PCAF protein degradation; assay type: cell-based
[14] = biological target: T4, von Hippel-Lindau disease tumor suppressor/Mitogen-activated protein kinase 13 (Homo sapiens, UniProt O15264+P40337); assay: Protac activity at E3 ubiquitin ligase/p38delta (unknown origin) assessed as p38delta degradation by cell based assay relative to control
Target sequence in this assay (O15264 whole entry, looked up): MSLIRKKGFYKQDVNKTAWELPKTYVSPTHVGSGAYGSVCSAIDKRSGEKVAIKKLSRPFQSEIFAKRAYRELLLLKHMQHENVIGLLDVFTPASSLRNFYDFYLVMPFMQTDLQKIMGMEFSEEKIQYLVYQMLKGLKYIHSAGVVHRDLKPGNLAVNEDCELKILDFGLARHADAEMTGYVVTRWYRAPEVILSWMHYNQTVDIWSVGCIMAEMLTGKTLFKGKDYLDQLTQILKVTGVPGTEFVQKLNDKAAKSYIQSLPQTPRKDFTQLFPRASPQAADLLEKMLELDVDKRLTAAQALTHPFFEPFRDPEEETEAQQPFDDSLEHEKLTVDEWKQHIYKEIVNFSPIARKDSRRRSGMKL
Target sequence in this assay (P40337 whole entry, looked up): as the sequence (P40337 whole entry) above

[15] = biological target: T4, von Hippel-Lindau disease tumor suppressor/Mitogen-activated protein kinase 13; assay: Protac activity at E3 ubiquitin ligase/p38delta (unknown origin) assessed as p38delta degradation by cell based assay
Target sequence in this assay (O15264 whole entry): as the sequence (O15264 whole entry, looked up) above
Target sequence in this assay (P40337 whole entry): as the sequence (P40337 whole entry) above

[16] = biological target: Protein cereblon/Tyrosine-protein kinase BTK (Homo sapiens, UniProt Q06187+Q96SW2); assay: Protac activity at E3 ubiquitin ligase/BTK in human NAMALWA cells assessed as BTK degradation; assay type: cell-based
[17] = biological target: T3, von Hippel-Lindau disease tumor suppressor/Bromodomain-containing protein 2; assay: Protac activity against VHL/BRD2 in human 22Rvl cells assessed as induction of BRD2 protein degradation by reverse phase protein array analysis; assay type: cell-based
[18] = biological target: von Hippel-Lindau disease tumor suppressor/Myc proto-oncogene protein (Homo sapiens, UniProt P01106+P40337); assay: Protac activity against VHL/c-Myc (unknown origin) assessed as induction of c-Myc protein degradation by cell based reverse phase protein array analysis
[19] = biological target: T5, von Hippel-Lindau disease tumor suppressor/Mitogen-activated protein kinase 14 (Homo sapiens, UniProt Q16539+P40337); assay: Protac activity at E3 ubiquitin ligase/p38alpha (unknown origin) assessed as p38alpha degradation by cell based assay relative to control
[20] = biological target: T5, von Hippel-Lindau disease tumor suppressor/Mitogen-activated protein kinase 14; assay: Protac activity at E3 ubiquitin ligase/p38alpha (unknown origin) assessed as p38alpha degradation by cell based assay
Target sequence in this assay (Q16539 whole entry): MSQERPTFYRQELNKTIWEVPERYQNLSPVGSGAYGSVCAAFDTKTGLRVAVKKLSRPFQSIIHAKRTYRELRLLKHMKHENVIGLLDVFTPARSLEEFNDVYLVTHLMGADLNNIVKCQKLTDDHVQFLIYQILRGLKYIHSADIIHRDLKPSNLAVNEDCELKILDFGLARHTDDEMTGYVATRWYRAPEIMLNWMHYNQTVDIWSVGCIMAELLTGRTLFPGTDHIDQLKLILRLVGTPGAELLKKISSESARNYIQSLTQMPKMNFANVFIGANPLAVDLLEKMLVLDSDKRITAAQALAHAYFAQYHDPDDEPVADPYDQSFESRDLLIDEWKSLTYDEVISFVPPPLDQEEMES
Target sequence in this assay (P40337 whole entry): as the sequence (P40337 whole entry) above

SMILES: CCC(C)(C)C(=O)C(=O)N1CCCCC1C(=O)O[C@H](CCc1ccc(OC)c(OC)c1)c1cccc(NC(=O)CCC(=O)NCCCCNC(=O)COc2cccc3c2C(=O)N(C2CCC(=O)NC2=O)C3=O)c1 (stereo not given in full)
DC50 [1]: 10 nM

SMILES: Cc1ncsc1-c1ccc(CNC(=O)[C@@H]2C[C@@H](O)CN2C(=O)[C@@H](NC(=O)COCCCCOc2ccc(-c3ccc(N4C(=S)N(c5ccc(C#N)c(C(F)(F)F)c5)C(=O)C4(C)C)cc3)cc2)C(C)(C)C)cc1
Emax [2]: > 95%
DC50 [3]: 5 nM

SMILES: O=C1CCC(N2C(=O)c3cccc(NC(=O)CCCCCCCn4cc(COc5c(O)cc(O)c6c(=O)cc(-c7ccccc7)oc56)nn4)c3C2=O)C(=O)N1 (stereo not given)
IC50 [7]: 523 nM

SMILES: CN1C[C@H](Nc2cnn(C)c(=O)c2Br)C[C@H](c2ccc(C(=O)N(C)CCCN(C)c3ccc(CCCOc4cccc5c4C(=O)N(C4CCC(=O)NC4=O)C5=O)cc3)cc2)C1 (mixture of isomers)
DC50 [12]: 3 nM
DC50 [13]: 1.5 nM

SMILES: Nc1ncnc2c1c(-c1ccc(Oc3ccccc3)cc1)nn2C1CCN(CCOCCOCC(=O)Nc2ccc3c(c2)C(=O)N(C2CCC(=O)NC2=O)C3=O)CC1 (stereo not given)
DC50 [16]: 9.1 nM

Second part, the compound after the results:

IC50 [4]: 656 nM
DC50 [5]: 1.4 nM
Emax [6]: > 95%
SMILES: Cc1ncsc1-c1ccc(CNC(=O)[C@@H]2C[C@@H](O)CN2C(=O)[C@@H](NC(=O)COCCOCCOCCOCCOc2cc3nccc(Nc4ccc5scnc5c4)c3cc2S(=O)(=O)C(C)(C)C)C(C)(C)C)cc1

DC50 [8]: 10 nM
DC50 [9]: < 3 nM
DC50 [10]: 10 nM
SMILES: Cc1ncsc1-c1ccc(CNC(=O)[C@@H]2[C@@H](F)[C@@H](O)CN2C(=O)[C@@H](NC(=O)COCCOCCOCCNC(=O)C[C@@H]2N=C(c3ccc(Cl)cc3)c3c(sc(C)c3C)-n3c(C)nnc32)C(C)(C)C)cc1

Activity [11]: 50%
SMILES: CC/C(=C(\c1ccc(O)cc1)c1ccc(OCCN(C)C(=O)COCCOCCOCCOc2cccc(C(=O)c3csc([C@@H]4CCCN4C(=O)[C@@H](NC(=O)[C@H](C)NC)C4CCCCC4)n3)c2)cc1)c1ccccc1

Emax [14]: 99.4%
DC50 [15]: 46.2 nM
SMILES: COc1cc2c(Oc3ccc(NC(=O)C4(C(=O)Nc5ccc(F)cc5)CC4)cc3F)ccnc2cc1OCCOCCOCCOc1cc(-c2scnc2C)ccc1CNC(=O)[C@@H]1C[C@@H](O)CN1C(=O)[C@H](C(C)C)N1Cc2ccccc2C1=O

DC50 [17]: < 5 nM
DC50 [18]: < 1 nM
SMILES: Cc1ncsc1-c1ccc([C@H](C)NC(=O)[C@@H]2C[C@@H](O)CN2C(=O)[C@@H](NC(=O)COCCCOCCNC(=O)C[C@@H]2N=C(c3ccc(Cl)cc3)c3c(sc(C)c3C)-n3c(C)nnc32)C(C)(C)C)cc1

Emax [19]: 97.4%
DC50 [20]: 7.16 nM
SMILES: COc1cc2c(Oc3ccc(NC(=O)C4(C(=O)Nc5ccc(F)cc5)CC4)cc3F)ccnc2cc1OCCCCOCCCCOCC(=O)N[C@H](C(=O)N1C[C@H](O)C[C@H]1C(=O)NCc1ccc(-c2scnc2C)cc1)C(C)(C)C
